Results on 13 molecules are retold here after patent US20260184710A1, “CASITAS B-LINEAGE LYMPHOMA PROTOONCOGENE B (CBL-B) DEGRADING COMPOUNDS AND ASSOCIATED METHODS OF USE” (Arvinas Operations, Inc., priority 2022, published 2026).

Some results are limits rather than exact numbers.

For one experiment, the target named is T1, Cbl-b (Homo sapiens, UniProt Q13191).
T1 construct: Cbl-b-HiBit KI Jurkat Cells were purchased from Promega; host or cells: Cbl-b-HiBiT knock-in Jurkat cells
T1 sequence (Q13191 whole entry): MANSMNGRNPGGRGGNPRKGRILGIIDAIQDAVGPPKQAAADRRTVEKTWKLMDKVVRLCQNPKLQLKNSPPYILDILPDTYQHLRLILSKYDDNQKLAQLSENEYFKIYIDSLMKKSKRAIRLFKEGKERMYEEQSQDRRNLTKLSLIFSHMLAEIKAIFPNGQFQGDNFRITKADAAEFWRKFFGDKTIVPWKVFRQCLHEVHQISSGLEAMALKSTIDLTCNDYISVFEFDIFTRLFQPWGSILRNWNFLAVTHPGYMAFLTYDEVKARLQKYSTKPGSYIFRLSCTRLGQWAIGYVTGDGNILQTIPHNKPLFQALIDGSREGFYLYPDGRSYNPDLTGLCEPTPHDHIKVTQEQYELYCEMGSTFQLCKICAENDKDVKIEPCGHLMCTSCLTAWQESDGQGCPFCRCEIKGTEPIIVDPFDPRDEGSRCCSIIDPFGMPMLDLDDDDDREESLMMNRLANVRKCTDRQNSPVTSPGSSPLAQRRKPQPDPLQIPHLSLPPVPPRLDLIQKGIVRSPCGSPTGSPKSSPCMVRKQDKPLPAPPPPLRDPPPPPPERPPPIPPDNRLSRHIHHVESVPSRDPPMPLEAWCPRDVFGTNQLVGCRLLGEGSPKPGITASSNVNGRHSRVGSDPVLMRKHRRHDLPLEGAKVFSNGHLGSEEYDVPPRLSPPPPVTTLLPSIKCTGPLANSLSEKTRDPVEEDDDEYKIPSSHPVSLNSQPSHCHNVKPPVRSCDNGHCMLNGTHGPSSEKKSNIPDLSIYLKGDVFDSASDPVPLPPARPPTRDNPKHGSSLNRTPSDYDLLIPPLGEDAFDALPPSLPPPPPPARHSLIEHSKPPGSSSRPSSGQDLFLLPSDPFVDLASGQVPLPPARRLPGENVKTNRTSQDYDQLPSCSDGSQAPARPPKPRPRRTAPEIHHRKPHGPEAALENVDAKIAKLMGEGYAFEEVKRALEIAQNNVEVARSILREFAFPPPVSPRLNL
As to the kind of experiment: Cbl-b Degradation Method B (Nano-Glo HiBiT lytic detection). The experiment is classed as cell-based. The settings on record: Cbl-b-HiBit KI Jurkat Cells, incubated at least 6-24 hours; half maximal degradation; read-out: Cbl-b Degredation Method B IC50. The procedure:
Cbl-b Degradation Method B [table] Cbl-b-HiBit KI Jurkat Cells were purchased from Promega, and cell media consisted of RPMI 1640 with 10% […] and 1% pen/strep. The cells were counted, measured for viability, and 35 μL of the cell solution was seeded into 384 well flat bottom plates at a ratio of 20,000 cells per 35 μL. After which, the plates were incubated for ˜24 hours at 37° C. and 5% CO2. Compounds were ordered from Evotec in a 384 well plate at a 1 mM top concentration in DMSO and serially diluted 1:3 in DMSO for an 11-point dose response. Using the Bravo instrument, 1 uL of compound solution or DMSO was transferred to 125 uL of media. Each well was treated with 5 μL of compound plus media mixture or DMO and subsequently incubated for at least 6-24 hours at 37° C. and 5% CO2. After incubation, 30 μL of either NanoGlo media was added to each cell, and the plates read on the Synergy Neo2 machine. The concentration of an exemplary compound that leads to half maximal degradation (DC50) as well as the maximum degradation observed (Dmax, conventionally expressed as a percentage of control) is shown below in Table 2.
As for `Cn1cnnc1CC1(c2cccc(N3Cc4c(cc(CN5CCC(CCN6CCN(c7ccc8c(c7)C(=O)N(C7CCC(=O)NC7=O)C8=O)CC6)CC5)cc4C(F)(F)F)C3=O)c2)COC1` (stereo not drawn) [Example 39, 2-(2,6-dioxopiperidin-3-yl)-5-{4-[2-(1-{[2-(3-{3-[(4-methyl-4H-1,2,4-triazol-3-yl)methyl]oxetan-3-yl}phenyl)-3-oxo-7-(trifluoromethyl)-2,3-dihydro-1H-isoindol-5-yl]methyl}piperidin-4-yl)ethyl]piperazin-1-yl}-2,3-dihydro-1H-isoindole-1,3-dione], the DC50 is above 500 nM.

Consider `Cn1cnnc1CC1(c2cccc(-n3cc4c(C(F)(F)F)cc(CN5CCC[C@H](CN6CCC[C@@H](CN7CCN(c8ccc9c(c8F)CN(C8CCC(=O)NC8=O)C9=O)CC7)C6)C5)cc4n3)c2)COC1` (stereo partly drawn) [Example 257, 3-[4-fluoro-5-(4-{[(3R)-1-{[(3R)-1-{[2-(3-{3-[(4-methyl-4H-1,2,4-triazol-3-yl)methyl]oxetan-3-yl}phenyl)-4-(trifluoromethyl)-2H-indazol-6-yl]methyl}piperidin-3-yl]methyl}piperidin-3-yl]methyl}piperazin-1-yl)-1-oxo-2,3-dihydro-1H-isoindol-2-yl]piperidine-2,6-dione], for which the DC50 is above 500 nM.

For the molecule `Cn1cnnc1CC1(c2cccc(-n3cc4c(C(F)(F)F)cc(CN5CCC(CN6CCC(CN7CCN(c8ccc9c(c8F)CN(C8CCC(=O)NC8=O)C9=O)CC7)CC6)CC5)cc4n3)c2)COC1` (stereo not drawn) [Example 299, 3-{4-fluoro-5-[4-({1-[(1-{[2-(3-{3-[(4-methyl-4H-1,2,4-triazol-3-yl)methyl]oxetan-3-yl}phenyl)-4-(trifluoromethyl)-2H-indazol-6-yl]methyl}piperidin-4-yl)methyl]piperidin-4-yl}methyl)piperazin-1-yl]-1-oxo-2,3-dihydro-1H-isoindol-2-yl}piperidine-2,6-dione], the DC50 was above 500 nM.

Regarding `Cn1cnnc1CC1(c2cccc(-n3cc4c(C(F)(F)F)cc(CN5CCC[C@H](CN6CCC[C@@H](OC7CCN(c8ccc9c(c8F)CN(C8CCC(=O)NC8=O)C9=O)CC7)C6)C5)cc4n3)c2)COC1` (stereo partly drawn) [Example 297, 3-[4-fluoro-5-(4-{[(3R)-1-{[(3S)-1-{[2-(3-{3-[(4-methyl-4H-1,2,4-triazol-3-yl)methyl]oxetan-3-yl}phenyl)-4-(trifluoromethyl)-2H-indazol-6-yl]methyl}piperidin-3-yl]methyl}piperidin-3-yl]oxy}piperidin-1-yl)-1-oxo-2,3-dihydro-1H-isoindol-2-yl]piperidine-2,6-dione], the DC50 was above 500 nM.

Take `C[C@@H]1CN(CC2CCC(OC3CCN(c4ccc5c(n4)[C@@H](C)N(C4CCC(=O)NC4=O)C5=O)CC3)CC2)CCN1Cc1cc2c(c(C(F)(F)F)c1)CN(c1cccc([C@]3(Cc4nncn4C)C[C@H](C#N)C3)c1)C2=O` (single isomer, unassigned) [Example 240, (1rs&,3rs&)-3-[3-(6-{[(2R)-2-methyl-4-{[(1rs,4rs)-4-({1-[(7R*)-6-(2,6-dioxopiperidin-3-yl)-7-methyl-5-oxo-5H,6H,7H-pyrrolo[3,4-b]pyridin-2-yl]piperidin-4-yl}oxy)cyclohexyl]methyl}piperazin-1-yl]methyl}-1-oxo-4-(trifluoromethyl)-2,3-dihydro-1H-isoindol-2-yl)phenyl]-3-[(4-methyl-4H-1,2,4-triazol-3-yl)methyl]cyclobutane-1-carbonitrile]: the DC50 was above 500 nM.

Turning to `Cn1cnnc1CC1(c2cccc(N3Cc4c(cc(CN5CCC[C@H](CN6CC[C@@H](OC7CCN(c8ccc9c(c8F)CN(C8CCC(=O)NC8=O)C9=O)CC7)CC6(C)C)C5)cc4C(F)(F)F)C3=O)c2)CC(C#N)C1` (single isomer, unassigned) [Example 290, (1r**,3r**)-3-[3-(6-{[(3S)-3-{[(4R*)-4-({1-[2-(2,6-dioxopiperidin-3-yl)-4-fluoro-1-oxo-2,3-dihydro-1H-isoindol-5-yl]piperidin-4-yl}oxy)-2,2-dimethylpiperidin-1-yl]methyl}piperidin-1-yl]methyl}-1-oxo-4-(trifluoromethyl)-2,3-dihydro-1H-isoindol-2-yl)phenyl]-3-[(4-methyl-4H-1,2,4-triazol-3-yl)methyl]cyclobutane-1-carbonitrile], the DC50 was above 500 nM.

Regarding `CC1c2nc(N3CCC(CN4CCN(CC5CCN(Cc6cc7c(c(C(F)(F)F)c6)CN(c6cccc([C@]8(Cc9nncn9C)C[C@@H](C#N)C8)c6)C7=O)CC5)C(C)(C)C4)CC3)ccc2C(=O)N1C1CCC(=O)NC1=O` (stereo partly drawn) [Example 287, (1r,3r)-3-(3-{6-[(4-{[4-({1-[6-(2,6-dioxopiperidin-3-yl)-7-methyl-5-oxo-5H,6H,7H-pyrrolo[3,4-b]pyridin-2-yl]piperidin-4-yl}methyl)-2,2-dimethylpiperazin-1-yl]methyl}piperidin-1-yl)methyl]-1-oxo-4-(trifluoromethyl)-2,3-dihydro-1H-isoindol-2-yl}phenyl)-3-[(4-methyl-4H-1,2,4-triazol-3-yl)methyl]cyclobutane-1-carbonitrile], the DC50 is above 500 nM.

On to `CC1c2nc(N3CCC(O[C@H]4CC[C@H](CN5CCCN(c6cc7c(c(C(F)(F)F)c6)CN(c6cccc([C@]8(Cc9nncn9C)C[C@@H](C#N)C8)c6)C7=O)CC5)CC4)CC3)ccc2C(=O)N1C1CCC(=O)NC1=O` (stereo partly drawn) [Example 180, (1r,3r)-3-[(4-methyl-4H-1,2,4-triazol-3-yl)methyl]-3-{3-[1-oxo-6-(4-{[(1r,4r)-4-({1-[6-(2,6-dioxopiperidin-3-yl)-7-methyl-5-oxo-5H,6H,7H-pyrrolo[3,4-b]pyridin-2-yl]piperidin-4-yl}oxy)cyclohexyl]methyl}-1,4-diazepan-1-yl)-4-(trifluoromethyl)-2,3-dihydro-1H-isoindol-2-yl]phenyl}cyclobutane-1-carbonitrile], for which the DC50 was below 5 nM.

With `Cn1cnnc1CC1(c2cccc(N3Cc4c(cc(CN5CCN(c6ccc7c(c6)C(=O)N(C6CCC(=O)NC6=O)C7=O)CC5)cc4C(F)(F)F)C3=O)c2)COC1` (stereo not drawn) [Example 32, 2-(2,6-dioxopiperidin-3-yl)-5-(4-{[2-(3-{3-[(4-methyl-4H-1,2,4-triazol-3-yl)methyl]oxetan-3-yl}phenyl)-3-oxo-7-(trifluoromethyl)-2,3-dihydro-1H-isoindol-5-yl]methyl}piperazin-1-yl)-2,3-dihydro-1H-isoindole-1,3-dione], the DC50 was in the range of 50 to 500 nM.

On to `C[C@@H]1c2nc(N3CCC(O[C@H]4CC[C@H](CN5CCN(Cc6cc7c(c(C(F)(F)F)c6)CN(c6cccc(C8(Cc9nncn9C)CC(C#N)C8)c6)C7=O)[C@@H](C)C5)CC4)CC3)ccc2C(=O)N1C1CCC(=O)NC1=O` (single isomer, unassigned) [Example 248, (1r***,3r***)-3-[3-(6-{[(2S)-2-methyl-4-{[(1r**,4r**)-4-({1-[(7R*)-6-(2,6-dioxopiperidin-3-yl)-7-methyl-5-oxo-5H,6H,7H-pyrrolo[3,4-b]pyridin-2-yl]piperidin-4-yl}oxy)cyclohexyl]methyl}piperazin-1-yl]methyl}-1-oxo-4-(trifluoromethyl)-2,3-dihydro-1H-isoindol-2-yl)phenyl]-3-[(4-methyl-4H-1,2,4-triazol-3-yl)methyl]cyclobutane-1-carbonitrile], for which the DC50 was above 500 nM.

In the case of `Cn1cnnc1CC1(c2cccc(N3Cc4c(cc(CN5CC6(CCN(c7ccc8c(c7)C(=O)N(C7CCC(=O)NC7=O)C8=O)CC6)C5)cc4C(F)(F)F)C3=O)c2)COC1` (stereo not drawn) [Example 49, 2-(2,6-dioxopiperidin-3-yl)-5-(2-{[2-(3-{3-[(4-methyl-4H-1,2,4-triazol-3-yl)methyl]oxetan-3-yl}phenyl)-3-oxo-7-(trifluoromethyl)-2,3-dihydro-1H-isoindol-5-yl]methyl}-2,7-diazaspiro[3.5]nonan-7-yl)-2,3-dihydro-1H-isoindole-1,3-dione], the DC50 is above 500 nM.

With `Cn1cnnc1CC1(c2cccc(-n3cc4c(C(F)(F)F)cc(CN5CCC[C@H](CN6CCC[C@H](OC7CCN(c8ccc9c(c8F)CN(C8CCC(=O)NC8=O)C9=O)CC7)C6)C5)cc4n3)c2)COC1` (stereo partly drawn) [Example 258, 3-[4-fluoro-5-(4-{[(3S)-1-{[(3S)-1-{[2-(3-{3-[(4-methyl-4H-1,2,4-triazol-3-yl)methyl]oxetan-3-yl}phenyl)-4-(trifluoromethyl)-2H-indazol-6-yl]methyl}piperidin-3-yl]methyl}piperidin-3-yl]oxy}piperidin-1-yl)-1-oxo-2,3-dihydro-1H-isoindol-2-yl]piperidine-2,6-dione], the DC50 is above 500 nM.

Consider `C[C@@H]1c2nc(N3CCC(O[C@H]4CC[C@H](CN5CCN(Cc6cc7c(c(C(F)(F)F)c6)CN(c6cccc(C8(Cc9nncn9C)CC(C#N)C8)c6)C7=O)C(C)(C)C5)CC4)CC3)ccc2C(=O)N1C1CCC(=O)NC1=O` (single isomer, unassigned) [Example 309, (1r***,3r***)-3-(3-{6-[(2,2-dimethyl-4-{[(1r**,4r**)-4-({1-[(7R*)-6-(2,6-dioxopiperidin-3-yl)-7-methyl-5-oxo-5H,6H,7H-pyrrolo[3,4-b]pyridin-2-yl]piperidin-4-yl}oxy)cyclohexyl]methyl}piperazin-1-yl)methyl]-1-oxo-4-(trifluoromethyl)-2,3-dihydro-1H-isoindol-2-yl}phenyl)-3-[(4-methyl-4H-1,2,4-triazol-3-yl)methyl]cyclobutane-1-carbonitrile], for which the DC50 was above 500 nM.

The same experiment, now with this note: Cbl-b-HiBit KI Jurkat Cells, incubated at least 6-24 hours; maximum degradation observed; read-out: Cbl-b Degredation Method B Dmax (%).
Take `CC1c2nc(N3CCC(O[C@H]4CC[C@H](CN5CCCN(c6cc7c(c(C(F)(F)F)c6)CN(c6cccc([C@]8(Cc9nncn9C)C[C@@H](C#N)C8)c6)C7=O)CC5)CC4)CC3)ccc2C(=O)N1C1CCC(=O)NC1=O` (stereo partly drawn) [Example 180, (1r,3r)-3-[(4-methyl-4H-1,2,4-triazol-3-yl)methyl]-3-{3-[1-oxo-6-(4-{[(1r,4r)-4-({1-[6-(2,6-dioxopiperidin-3-yl)-7-methyl-5-oxo-5H,6H,7H-pyrrolo[3,4-b]pyridin-2-yl]piperidin-4-yl}oxy)cyclohexyl]methyl}-1,4-diazepan-1-yl)-4-(trifluoromethyl)-2,3-dihydro-1H-isoindol-2-yl]phenyl}cyclobutane-1-carbonitrile]: the Dmax was below 35%.

As to `Cn1cnnc1CC1(c2cccc(N3Cc4c(cc(CN5CCN(c6ccc7c(c6)C(=O)N(C6CCC(=O)NC6=O)C7=O)CC5)cc4C(F)(F)F)C3=O)c2)COC1` (stereo not drawn) [Example 32, 2-(2,6-dioxopiperidin-3-yl)-5-(4-{[2-(3-{3-[(4-methyl-4H-1,2,4-triazol-3-yl)methyl]oxetan-3-yl}phenyl)-3-oxo-7-(trifluoromethyl)-2,3-dihydro-1H-isoindol-5-yl]methyl}piperazin-1-yl)-2,3-dihydro-1H-isoindole-1,3-dione], the Dmax was above 70%.
